Measurements published in patent US20260265240A1, “PREPARATION METHOD FOR SALT FORM AND CRYSTAL FORM OF 2,6-PIPERIDINEDIONE COMPOUND AND USE THEREOF” (ZHANGZHOU PIEN TZE HUANG PHARMACEUTICAL CO., LTD., priority 2023, published 2026).
Counter-ions that a name gives are not always drawn.

Legend:
[1] = Pharmacokinetic evaluation in mice; type: in vivo, C57BL/6 or C57 mice; conditions: male, C57BL/6, mouse, plasma, intravenous injection 2 mg/kg, fasted, read-out: Apparent Volume of Distribution
From the text: C57BL/6 or C57 male mice were selected as the test animals for this study. The LC/MS/MS method was employed to quantitatively determine the plasma drug concentrations at various time points after intravenous injection or intragastric administration of the test compound, aiming to evaluate the pharmacokinetic characteristics of the compound of the present disclosure in mice.
C57BL/6 or C57 mice (male, 20 to 30 g, 7 to 10 weeks old, Beijing Vital River).
A clear solution of the test compound was injected intravenously into the tail vein of C57BL/6 mice (fasted overnight) (vehicle: 10% DMSO/10% solutol/80% H2O), or administered intragastrically to C57 mice (fed). […] The mixture was thoroughly vortexed and mixed, and centrifuged at 6000 g for 3 minutes at 2 to 8° C. […] The mixture was thoroughly vortexed and mixed, and centrifuged at 6000 g for 3 minutes at 2 to 8° C. Plasma drug concentrations were determined by the LC-MS/MS method, and relevant pharmacokinetic parameters were calculated using Phoenix WinNonlin 8.2.0 pharmacokinetic software with non-compartmental model linear-log trapezoidal method.

[2] = Pharmacokinetic evaluation in beagle dogs; type: in vivo; conditions: male, dog, plasma, intravenous injection 0.5 mg/kg, fed
Description: Male beagle dogs were selected as the experimental animals in this study.
Beagle dogs (male, 7 to 10 kg, Beijing Mars Biotechnology Co., Ltd.).
A clear solution of the test compound was slowly injected intravenously into beagle dogs (fed) via the peripheral vein (vehicle: […]/10% Solutol/85% H2O), or administered intragastrically to beagle dogs (fed). For intravenous administration, 0.5 mL of blood was collected from the peripheral vein at 0.083, 0.25, 0.5, 1, 2, 4, 6, 8, and 24 h after administration, placed in EDTA-2K anticoagulant tubes, and centrifuged at 3200 g for 10 minutes at 2 to 8° C. to separate the supernatant. For intragastric administration, 0.5 mL of blood was collected from the peripheral vein at 0.083, 0.25, 0.5, 1, 2, 4, 6, 8, and 24 h after administration, placed in EDTA-2K anticoagulant tubes, and centrifuged at 3200 g for 10 minutes at 2 to 8° C. to separate the supernatant. Plasma drug concentrations were determined by the LC-MS/MS method, and relevant pharmacokinetic parameters were calculated using Phoenix WinNonlin 6.3 pharmacokinetic software with non-compartmental model linear-log trapezoidal method.

## O=C1CCC(c2noc3ccc4c(NC(=O)CN5CCN(C[C@H]6CC[C@H](n7cc(NC(=O)c8coc(-c9ccnc(NCC%10CC%10)c9)n8)c(C(F)F)n7)CC6)CC5)cccc4c23)C(=O)N1 (stereo partly drawn) [Hydrochloride of Compound of Formula (I)]
[1]
  Vd: 1.6 L/kg
[2]
  clearance: 21.3 mL/min/kg
[2]; read-out: Elimination Half-Life (converted)
  half-life: 5.03 h
